# Measured values reported in publication PMC9200282, “GPR15L is an epithelial inflammation-derived pruritogen” (Science Advances, 2022).
# Tests used:
# DRG neurons = assay: Calcium imaging of dissociated DRG neurons expressing GCaMP6f; format: cell-based, mouse; details: chloroquine 100 μM, histamine 100 μM, capsaicin 10 μM, sequential challenge
# Method: Primary cultures of DRG neurons were generated from C57BL/6N mice as described previously ([65]). […] Imaging was performed with an ORCA-Flash 4.0 […] digital complementary metal-oxide semiconductor camera (Hamamatsu, Bridgewater, NJ) at 1 Hz. Fluorescence intensity in hand-drawn regions of interest was extracted using HCImage (Hamamatsu) and plotted against time. The R package […] was used to generate a heatmap plot to visualize fluorescence signals in all the neurons.
# mast cell = details: through MRGPRs; cited from earlier work
# Source text: In particular, MRGPRX2 and the mouse ortholog Mrgprb2 are receptors for many cationic molecules ([22]–[25]). Activation of MRGPRs on mast cells can cause immunoglobulin E–independent allergic reactions (pseudo-allergy) including extravasation, itch, and pain ([22], [26]). Some human and tick β-defensins can activate not only MRGPRX2/Mrgprb2 but also MRGPRX1/Mrgprc11, which are expressed on sensory neurons ([27]).
# Mrgpra3 DRG neurons = assay: Whole-cell patch clamp of Mrgpra3-Cre-eGFP DRG neurons; format: cell-based, mouse; details: chloroquine 100 μM, pH 7.4
# Method: Whole-cell patch clamp was performed on Mrgrpa3-Cre-eGFP neurons as previously described ([67]). Briefly, DRG neurons collected from Mrgpra3-Cre-eGFP mice were cultured on coverslips for 48 to 72 hours. Whole-cell current clamp recordings were performed on dissociated DRG neurons expressing eGFP. Data were recorded with an Axon 700B amplifier and pCLAMP 11 software (Molecular Devices, Sunnyvale). Pipette electrodes were pulled with P-97 microelectrode puller (Sutter Instrument) from borosilicate glass (World Precision Instruments Inc.) with resistances of 2 to 4 megohms. The extracellular solution contained 140 mM NaCl, 4 mM KCl, 2 mM CaCl2, 1 mM MgCl2, 10 mM Hepes, and 10 mM glucose with a pH of 7.4 and an osmolality of 300 mosm/kg. The pipette solution contained 140 mM KCl, 1 mM MgCl2, 1 mM EGTA, 10 mM Hepes, 3 mM adenosine 5′-triphosphate, and 0.5 mM guanosine 5′-triphosphate with a pH of 7.4 and an osmolality of 300 mosm/kg.
Compound,response of Gpr15l-responsive DRG neurons to other pruritogens/capsaicin (DRG neurons),mast cell degranulation (mast cell),neurons firing action potentials (Mrgpra3 DRG neurons)
NCCc1c[nH]cn1 [histamine],The majority of these neurons also responded,–,–
"LL-37: cationic antimicrobial peptide, cathelicidin (LLGDFFRKSKEKIGKEFKRIVQRIKDFLRNLVPRTES; Antibacterial peptide LL-37; UniProt P49913 134-170, looked up)",–,can cause mast cell degranulation,–
COc1cc(CNC(=O)CCCC/C=C/C(C)C)ccc1O [capsaicin],The majority of these neurons also responded,–,–
CCN(CC)CCCC(C)Nc1ccnc2cc(Cl)ccc12 (centres unmarked) [chloroquine],The majority of these neurons also responded,–,7/8
